The results in this text go back to PMC6572376, “N1-Propargylguanosine Modified mRNA Cap Analogs: Synthesis, Reactivity, and Applications to the Study of Cap-Binding Proteins” (Molecules, 2019).

The assay concerns the target T1, hDcpS (Homo sapiens, UniProt Q96C86).
T1 construct: made in house
T1 sequence (Q96C86 1-337): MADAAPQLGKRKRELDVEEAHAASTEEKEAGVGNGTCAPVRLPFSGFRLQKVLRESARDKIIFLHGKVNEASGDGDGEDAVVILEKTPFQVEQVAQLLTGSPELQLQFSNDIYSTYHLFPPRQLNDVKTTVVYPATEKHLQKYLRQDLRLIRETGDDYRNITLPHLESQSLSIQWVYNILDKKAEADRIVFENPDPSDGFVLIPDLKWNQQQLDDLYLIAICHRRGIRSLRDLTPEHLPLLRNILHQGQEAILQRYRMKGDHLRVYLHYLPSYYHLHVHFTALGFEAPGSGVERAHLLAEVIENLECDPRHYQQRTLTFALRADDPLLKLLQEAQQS
Description: hDcpS cleavage of fluorescent probes monitored by emission spectroscopy. It counts as biochemical. The following applies: 30 nM hDcpS; probe 30 µM / 100 nM (legend, methods). The procedure: Fluorescently labeled cap analogs that serve as DcpS substrates can be considered as activity probes. We performed an enzymatic cleavage test with 30 nM hDcpS and 30 µM probe to evaluate whether fluorescently labeled derivatives of cap analog 1 (probes 6–9) can be used to monitor enzymatic activity via changes in fluorescence emission. […] For the Py-labeled probe 9, the fluorescence intensity at the emission maximum increased by 50% after complete DcpS cleavage (Figure 4c and Figure S3). Nevertheless, certain previously developed probes provided higher sensitivity than the one formulated here.
Human DcpS was expressed and purified as described previously. Enzyme was stored at −80 °C at 10 µM concentration (monomer). Enzyme hDcpS was preincubated at 30 °C for 15 min before usage. […] Reaction progress was monitored by recording emission spectra, upon excitation at the wavelength characteristic for a fluorophore studied, using Cary Eclipse (Agilent Technologies, Santa Clara, CA, USA) equipped with a xenon lamp in a quartz cuvette (10 mm × 4 mm).
Figure 4 The influence of complete cleavage by hDcpS (30 nM) on the fluorescence properties of probes 6–9 (100 nM). Emission spectra before (0 min) and after (60 min) decapping scavenger (DcpS) cleavage for compounds 6 (a) and 9 (b); (c) The ratios of fluorescence intensity after and before cleavage (I/I0) for all studied probes.

`C[n+]1cn([C@@H]2O[C@H](COP(=O)(O)OP(=O)([O-])OP(=O)(O)OC[C@H]3O[C@@H](n4cnc5c(=O)n(Cc6cn(CCOCCOCCNC(=O)Cc7ccc8ccc9cccc%10ccc7c8c9%10)nn6)c(N)nc54)[C@H](O)[C@@H]3O)[C@@H](O)[C@H]2O)c2nc(N)nc(O)c21` [Compound 9, m^7Gp3G-N1-Py]: the “Increase of fluorescence intensity at the emission maximum after complete DcpS cleavage” value worked out at 50%.
